Data set [1] deals with T1, hA1AR (Homo sapiens, UniProt P30542).
T1 sequence (P30542 1-326): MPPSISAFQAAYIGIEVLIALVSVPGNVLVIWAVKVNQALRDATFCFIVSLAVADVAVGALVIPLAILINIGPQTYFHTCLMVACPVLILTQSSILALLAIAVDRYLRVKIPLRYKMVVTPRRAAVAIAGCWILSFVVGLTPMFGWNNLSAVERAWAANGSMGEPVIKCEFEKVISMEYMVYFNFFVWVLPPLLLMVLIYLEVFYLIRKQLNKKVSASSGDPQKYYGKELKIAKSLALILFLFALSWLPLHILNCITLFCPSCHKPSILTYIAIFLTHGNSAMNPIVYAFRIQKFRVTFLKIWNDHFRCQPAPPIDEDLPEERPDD
Description: Radioligand binding competition, [3H]DPCPX, membranes from CHO-A1 cells. The settings on record: 1 μM, [3H]DPCPX, human CHO cells, n = 2. The gist of the method: (§1)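 Racemates, plus selected enantiomers after chiral resolution, were tested at 25 °C, with a 60 min incubation for one subtype and 30 min for others. Non-specific binding was defined with 10 μM or 100 μM R-PIA. Bound radioactivity was counted after washing and filtration.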

The target in data set [2] is T2, hA2BAR (Homo sapiens, UniProt P29275).
T2 construct: host or cells: HEK-293 (HEK-293-A2B) cell membranes
T2 sequence (P29275 1-332): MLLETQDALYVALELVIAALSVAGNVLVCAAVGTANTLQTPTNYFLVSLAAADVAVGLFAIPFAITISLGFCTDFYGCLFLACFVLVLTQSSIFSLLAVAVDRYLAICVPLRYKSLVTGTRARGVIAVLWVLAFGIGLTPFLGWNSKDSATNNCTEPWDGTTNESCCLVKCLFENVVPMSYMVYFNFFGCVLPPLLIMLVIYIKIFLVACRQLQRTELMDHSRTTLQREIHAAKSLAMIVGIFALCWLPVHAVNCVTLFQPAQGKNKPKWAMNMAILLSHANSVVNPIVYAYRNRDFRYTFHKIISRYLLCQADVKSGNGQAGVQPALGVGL
Description: Radioligand binding competition, [3H]DPCPX, membranes from HEK-293-A2B cells. Also on record: Exp. dG: unit not given here. As to conditions: for Ki: read-out: Ki hA2B; for Exp. dG: experimental binding free energy, Supplementary Table S3, unit not given (errors in kcal/mol). The gist of the method: as §1

Data set [3] concerns the target T3, hA3AR (Homo sapiens, UniProt P0DMS8).
T3 construct: expressed in transfected cells; host or cells: HeLa (HeLa-A3) cell membranes
T3 sequence (P0DMS8 1-318): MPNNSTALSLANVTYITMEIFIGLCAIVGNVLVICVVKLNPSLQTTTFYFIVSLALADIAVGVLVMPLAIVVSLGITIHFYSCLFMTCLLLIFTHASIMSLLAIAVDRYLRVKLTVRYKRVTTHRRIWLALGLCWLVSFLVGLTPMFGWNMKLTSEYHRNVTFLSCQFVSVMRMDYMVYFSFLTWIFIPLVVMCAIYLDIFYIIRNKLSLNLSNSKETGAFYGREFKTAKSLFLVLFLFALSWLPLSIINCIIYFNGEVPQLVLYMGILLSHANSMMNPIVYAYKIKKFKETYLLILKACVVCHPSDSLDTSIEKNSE
In words: Radioligand binding competition, [3H]NECA, membranes from HeLa-A3 cells. As to conditions: 1 μM, [3H]NECA, human HeLa cells, n = 2. The gist of the method:
as §1

A short description of data set [4]: Solubility determination (nephelometry). In kind it is physicochemical. The settings on record: 1:99 DMSO/PSB buffer, PBS pH 7, 37 °C. Here is the method:
The solubility of selected compounds was evaluated by following a previously described method.[31] A 10 mM stock solution of the compound was serially diluted in 100% DMSO, and 2.5 μL of this solution was added to a 384-well UV-transparent plate (Greiner) containing 47.5 μL of PBS (pH = 7). The plate was incubated at 37 °C for 4 h, and the light scattering was measured in a NEPHELOstar Plus reader (BMG LABTECH). The data was fitted to a segmented linear regression for measuring the compound solubility.

Data set [5] can be described thus: Human microsomal stability. In kind it is in vitro ADME. The settings on record: human microsomes; for microsomal stability percent (percentage remanent): sampling time 60 min; for microsomal CLint at 1 h / half-life at 1 h: human, pH 7.4; for microsomal CLint at 1 h: read-out: microsomal stability Clint (intrinsic clearance); for half-life at 1 h: read-out: microsomal stability t1/2. Here is the method:
The human microsomal stability of selected compounds was evaluated by following a previously described method.[31] The human microsomes employed were purchased from Tebu-Xenotech. The compound was incubated with the microsomes at 37 °C in a 50 mM phosphate buffer (pH = 7.4) containing 3 mM MgCl2, 1 mM NADP, 10 mM glucose-6-phosphate, and 1 U/mL glucose-6-phosphate-dehydrogenase. Samples (75 μL) were taken from each well at 0, 10, 20, 40, and 60 min and transferred to a plate containing 4 °C 75 μL acetonitrile and 30 μL of 0.5% formic acid in water was added for improving the chromatographic conditions. The plate was centrifuged (46,000 g, 30 min), and supernatants were taken and analyzed in a UPLC-MS/MS (Xevo TQD, Waters) by employing a BEH C18 column and an isocratic gradient of 0.1% formic acid in water:0.1% formic acid acetonitrile (60:40). The metabolic stability of the compounds was calculated from the logarithm of the remaining compounds at each of the time point studied.

Data set [6] addresses T4, CYP3A4 (Homo sapiens, UniProt P08684).
T4 construct: host or cells: insect cell microsomes
In words: CYP3A4 inhibition (fluorescence, substrates DBF or 7-BFC). The settings on record: for CYP3A4 % inh. at 10 μM, 7-BFC: substrate 7-benzyloxy-4-trifluoromethyl-coumarin; for IC50: IC50 obtained by extrapolation with analysis software, read-out: CYP3A4 IC50, DBF. In kind it is biochemical. As for the experimental part: To identify potential metabolic liabilities within the series here documented, the selected A2BAR antagonists were tested in vitro for CYP3A4 inhibitory activity.
The inhibitory activity of selected compounds was evaluated by following a previously described method.[31] […] The plate was then pre-incubated at 37 °C for 5 min and the reaction initiated by the addition of a pre-warmed enzyme/substrate (E/S) mix. The E/S mix contained buffer (KH2PO4), c-DNA-expressed P450 in insect cell microsomes, substrate (DBF: dibenzylfluorescein or 7-BFC: 7-benzyloxy-4-trifluoromethyl-coumarin) and other components to give the final assay concentrations in a reaction volume of 200 μL. Reactions were terminated after various times (a specific time for each cytochrome) by addition of STOP solution (ACN/Tris–HCl 0.5 M 80:20, and NaOH 2 N for CYP3A4). Fluorescence per well was measured using a fluorescence plate reader (Tecan Infinite M1000 PRO), and percentage of inhibition was calculated. In silico predictions were performed using free web-based models (FAME 3, SmartCYP, and Xenosite).[62]−[64]

[7] abbreviates: displacement of specific [3H]DPCPX binding in human HEK-293 cells, n = 3.

In brackets after ≈: the same amount, converted by molar mass. Like-named read-outs stand apart in the source and are kept apart here.

T4 sequence (P08684 whole entry): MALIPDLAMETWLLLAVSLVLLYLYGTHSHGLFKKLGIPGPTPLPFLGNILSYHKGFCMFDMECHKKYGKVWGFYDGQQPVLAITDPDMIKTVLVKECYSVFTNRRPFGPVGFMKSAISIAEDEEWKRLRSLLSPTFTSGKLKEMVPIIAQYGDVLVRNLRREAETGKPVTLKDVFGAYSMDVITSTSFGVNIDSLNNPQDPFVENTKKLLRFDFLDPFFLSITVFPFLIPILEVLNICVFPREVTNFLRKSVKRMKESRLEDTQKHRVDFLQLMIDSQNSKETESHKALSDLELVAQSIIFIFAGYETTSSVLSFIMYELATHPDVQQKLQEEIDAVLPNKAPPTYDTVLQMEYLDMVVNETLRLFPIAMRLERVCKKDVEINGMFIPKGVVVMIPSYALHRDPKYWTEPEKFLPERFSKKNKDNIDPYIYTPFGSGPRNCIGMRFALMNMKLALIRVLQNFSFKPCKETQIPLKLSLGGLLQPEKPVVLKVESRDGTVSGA

The Ki is the equilibrium dissociation constant of an inhibitor or competing ligand from its target. The solubility is the dissolved amount per volume that the medium holds. A word on the microsomal CLint: it is a measure of how fast metabolising enzymes remove a compound, apart from limits set by blood flow. For the compound `CC1=C(C(=O)OC(C)C)C(c2ccco2)n2c(nc3cc(F)ccc32)N1` (centres unmarked) [16b], in data set [1], the “% at 1 μM hA1 (percentage displacement of specific binding)” value was found to be 11%. In data set [2] (setting [7]), the Ki is 3.05 ± 0.7 nM. In addition, in data set [2], the “Exp. dG” value is listed as -11.61 and the Ki is < 10 nM. Also, the “% at 1 μM hA3 (percentage displacement of specific binding)” value in data set [3] stood at 3%. The amount in solution in data set [4] (solubility at 4 h) came to 47.5 µM (≈ 16.9 µg/mL). In data set [5], the “microsomal stability percent (percentage remanent)” value (“microsomal stability percent” below) was 19.83%, the microsomal CLint at 1 h turned out to be 20.1 µL/min/mg and the half-life at 1 h came to 27.4 min. In data set [6] (10 μM), the “CYP3A4 % inh. at 10 μM, 7-BFC” value came to 63%. The “CYP3A4 % inh. at 10 μM, DBF” value in data set [6] (10 μM, substrate dibenzylfluorescein) was 40%.

A word on the IC50: it is the concentration that gives 50% inhibition. As to `CC1=C(C(=O)OC(C)C)C(c2ccco2)n2c(nc3cc(Cl)ccc32)N1` (centres unmarked) [16j], the “% at 1 μM hA1 (percentage displacement of specific binding)” value in data set [1] was 35%. Besides, the Ki in data set [2] (setting [7]) was 5.03 ± 0.3 nM. Also, in data set [2], the “Exp. dG” value is on record as -11.31 and the inhibitory constant (Ki) is < 10 nM. For the same compound, the “% at 1 μM hA3 (percentage displacement of specific binding)” value in data set [3] is reported as 2%. In data set [4], this compound gave a solubility at 4 h of 23.7 µM (≈ 8.81 µg/mL). Besides, in data set [5], the “microsomal stability percent” value is given as 22.75%, the intrinsic metabolic clearance (microsomal CLint) at 1 h is 18.6 µL/min/mg and the half-life at 1 h is 28.1 min. The “CYP3A4 % inh. at 10 μM, 7-BFC” value in data set [6] (10 μM) came to 54%. In data set [6] (substrate dibenzylfluorescein), the 50% inhibitory concentration (IC50) was 3680 ± 470 nM.

For `CC1=C(C(=O)OC(C)C)C(c2ccco2)n2c(nc3cc(Br)ccc32)N1` (centres unmarked) [16r], the “% at 1 μM hA1 (percentage displacement of specific binding)” value in data set [1] was 25%. Further, in data set [2] (setting [7]), the inhibition constant (Ki) is 5.23 ± 0.4 nM. The Ki in data set [2] was < 10 nM. In addition, the “% at 1 μM hA3 (percentage displacement of specific binding)” value in data set [3] is 10%. In data set [4], the concentration in solution (solubility at 4 h) was 70.7 µM (≈ 29.4 µg/mL). Besides, in data set [5], the “microsomal stability percent” value was 32.13%, the microsomal CLint at 1 h is 14.2 µL/min/mg and the half-life at 1 h came out at 36.8 min. The “CYP3A4 % inh. at 10 μM, 7-BFC” value in data set [6] (10 μM) is on record as 52%. The 50% inhibitory concentration (IC50) in data set [6] (substrate dibenzylfluorescein) is 2260 ± 300 nM.

The values above are taken from publication PMC9841532, “Exploring the Effect of Halogenation in a Series of Potent and Selective A2B Adenosine Receptor Antagonists” (Journal of Medicinal Chemistry, 2022).
